Assay results: the supplement of paper PMC13380429

Assays:
Conditions in all cases: 72 h
HepG2 [1] = assay: cell viability relative to DMSO; higher = less toxic
U2OS [2] = assay: as above
Vero E6 [3] = assay: as above
Calu-3 [4] = assay: as above
Caco-2 [5] = assay: as above
HepG2 [6] = assay: relative viability EC50 (midpoint between 100% and the lowest measured viability); higher = less toxic
U2OS [7] = assay: as above
Vero E6 [8] = assay: as above
Calu-3 [9] = assay: as above
Caco-2 [10] = assay: as above
HepG2 [11] = assay: drug sensitivity score (DSS) for viability; higher = more toxic; extreme values may be limits of the assay
U2OS [12] = assay: as above
Vero E6 [13] = assay: as above
Calu-3 [14] = assay: as above
Caco-2 [15] = assay: as above

Compound | cell viability (HepG2 [1]; 1 nM) | cell viability (HepG2 [1]; 10 nM) | cell viability (HepG2 [1]; 100 nM) | cell viability (HepG2 [1]; 1000 nM) | cell viability (HepG2 [1]; 10000 nM) | cell viability (U2OS [2]; 1 nM) | cell viability (U2OS [2]; 10 nM) | cell viability (U2OS [2]; 100 nM) | cell viability (U2OS [2]; 1000 nM) | cell viability (U2OS [2]; 10000 nM) | cell viability (Vero E6 [3]; 1 nM) | cell viability (Vero E6 [3]; 10 nM) | cell viability (Vero E6 [3]; 100 nM) | cell viability (Vero E6 [3]; 1000 nM) | cell viability (Vero E6 [3]; 10000 nM) | cell viability (Calu-3 [4]; 1 nM) | cell viability (Calu-3 [4]; 10 nM) | cell viability (Calu-3 [4]; 100 nM) | cell viability (Calu-3 [4]; 1000 nM) | cell viability (Calu-3 [4]; 10000 nM) | cell viability (Caco-2 [5]; 1 nM) | cell viability (Caco-2 [5]; 10 nM) | cell viability (Caco-2 [5]; 100 nM) | cell viability (Caco-2 [5]; 1000 nM) | cell viability (Caco-2 [5]; 10000 nM) | relative viability EC50 (HepG2 [6]) | relative viability EC50 (U2OS [7]) | relative viability EC50 (Vero E6 [8]) | relative viability EC50 (Calu-3 [9]) | relative viability EC50 (Caco-2 [10]) | drug sensitivity score (HepG2 [11]) | drug sensitivity score (U2OS [12]) | drug sensitivity score (Vero E6 [13]) | drug sensitivity score (Calu-3 [14]) | drug sensitivity score (Caco-2 [15])
CC(C)NCC(O)COc1cccc2[nH]c3ccccc3c12 (stereo not given) [carazolol] | 85.6% | 99% | 98.6% | 101% | 104% | 103% | 96.3% | 102% | 97.8% | 99.7% | 98% | 99.1% | 90.1% | 100% | 99.3% | 102% | 101% | 90.9% | 95.7% | 106% | 97.4% | 89.7% | 104% | 98.1% | 105% | > 10 µM | > 10 µM | > 10 µM | > 10 µM | > 10 µM | 0 | 0 | 0 | 0 | 0
COCC1=C(C(=O)O)N2C(=O)[C@@H](NC(=O)/C(=N\OC)c3csc(N)n3)[C@H]2SC1 [cefpodoxime] | 106% | 103% | 108% | 101% | 96.1% | 104% | 99.6% | 105% | 102% | 101% | 99.7% | 98.1% | 99.2% | 97.5% | 99.4% | 98% | 105% | 96.8% | 99.4% | 103% | 106% | 112% | 97.5% | 91.4% | 105% | > 10 µM | > 10 µM | > 10 µM | > 10 µM | > 10 µM | 0 | 0 | 0 | 0 | 0
CCN(CC)C(=O)Nc1ccc(OCC(O)CNC(C)(C)C)c(C(C)=O)c1 (stereo not given) [celiprolol] | 99.6% | 98.9% | 106% | 88.1% | 103% | 101% | 100% | 96.5% | 95.9% | 95.3% | 103% | 104% | 102% | 106% | 97.3% | 104% | 104% | 106% | 98.7% | 96.4% | 95.4% | 106% | 112% | 103% | 106% | > 10 µM | > 10 µM | > 10 µM | > 10 µM | > 10 µM | 0 | 0 | 0 | 0 | 0
CC1=C(C(=O)O)N2C(=O)[C@@H](NC(=O)[C@H](N)c3ccccc3)[C@H]2SC1 [cephalexin] | 101% | 97.1% | 92.7% | 95.2% | 105% | 99.2% | 91.5% | 99.1% | 94.7% | 104% | 95.8% | 100% | 96.7% | 101% | 103% | 94.8% | 101% | 88.4% | 112% | 94.9% | 95.2% | 94.6% | 100% | 98% | 115% | > 10 µM | > 10 µM | > 10 µM | > 10 µM | > 10 µM | 0 | 0 | 0 | 0 | 0
Oc1ccc(Cl)c2c1CCC2 [chlorindanol] | 110% | 89.5% | 97.9% | 95.2% | 84.1% | 101% | 98.8% | 97.1% | 107% | 98.9% | 99.5% | 100% | 103% | 96.4% | 103% | 99.8% | 118% | 107% | 109% | 96.9% | 115% | 93.9% | 84.6% | 105% | 99.5% | > 10 µM | > 10 µM | > 10 µM | > 10 µM | > 10 µM | 0.3 | 0 | 0 | 0 | 0
CN(C)CC/C=C1/c2ccccc2Sc2ccc(Cl)cc21 [chlorprothixene] | 99.6% | 103% | 103% | 98.4% | 82.9% | 104% | 101% | 102% | 99.7% | 100% | 103% | 110% | 103% | 106% | 89.2% | 103% | 101% | 106% | 106% | 84.8% | 122% | 99.5% | 96.2% | 90.5% | 100% | > 10 µM | > 10 µM | > 10 µM | > 10 µM | > 10 µM | 0.6 | 0 | 0 | 0.1 | 0
N[C@]1(C(=O)O)CC[C@@H](C(=O)O)C1 [cis-ACPD] | 105% | 111% | 99.5% | 96.1% | 103% | 98.7% | 94.1% | 98.1% | 101% | 97.9% | 103% | 99.1% | 99.4% | 98.1% | 102% | 95.3% | 101% | 108% | 107% | 101% | 102% | 94.7% | 101% | 104% | 94.5% | > 10 µM | > 10 µM | > 10 µM | > 10 µM | > 10 µM | 0 | 0 | 0 | 0 | 0
